For 66 molecules, inhibition results are on record in PMC8041284, “Tunable Methacrylamides for Covalent Ligand Directed Release Chemistry” (Journal of the American Chemical Society, 2021).

Like-named read-outs stand apart in the source and are kept apart here.

The test deals with BTK (Homo sapiens, UniProt Q06187). The test is described as follows: biochemical.
Where [1] appears, read: read-out: BTK inhibition (%), 0.75 uM BTK, […] probe 3l, 15 min preincubation.

BTK, sequence (Q06187 402-655 limits assumed): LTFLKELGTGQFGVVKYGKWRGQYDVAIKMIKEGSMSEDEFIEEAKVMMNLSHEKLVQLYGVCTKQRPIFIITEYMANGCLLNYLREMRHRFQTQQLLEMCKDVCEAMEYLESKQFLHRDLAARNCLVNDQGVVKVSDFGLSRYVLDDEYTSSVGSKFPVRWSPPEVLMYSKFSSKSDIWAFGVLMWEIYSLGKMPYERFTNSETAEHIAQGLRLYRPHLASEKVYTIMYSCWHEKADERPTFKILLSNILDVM

The term inhibition denotes the change of the read-out against control, counted positive when it falls. For the molecule `CCOC(=O)c1ccc(O)c(OC)c1` [PCM-0215087], under setting [1], the inhibition at 10 µM was -7.8%.

With `COC(=O)CC[C@@H](C)[C@H]1CC[C@H]2[C@@H]3[C@H](O)C[C@@H]4C[C@H](O)CC[C@]4(C)[C@H]3C[C@H](O)[C@]12C` [PCM-0215088], the inhibition at 10 µM under setting [1] is -4.7%.

For the molecule `Cc1ccc(C(C)C)cc2c(C)ccc1-2` [PCM-0215089], under setting [1], the inhibition at 10 µM was 10.1%.

Take `CO/N=C(\C(=O)N[C@@H]1C(=O)N2C(C(=O)O)=CCS[C@H]12)c1csc(N)n1` [PCM-0215091]: under setting [1], the inhibition at 10 µM is 7.8%.

In the case of `C1CNCCNCCNCCN1` [PCM-0215094], the inhibition at 10 µM under setting [1] was -4.7%.

`C=C[C@@H]1C[C@]1(NC(=O)[C@@H]1C[C@@H](Oc2ncc(OC)c3ccc(Cl)cc23)CN1C(=O)[C@@H](NC(=O)OC(C)(C)C)C(C)(C)C)C(=O)NS(=O)(=O)C1CC1` [PCM-0215095]: under setting [1], the inhibition at 10 µM is -4.7%.

On to `C[C@]1(COc2ccc(N3CCC(Oc4ccc(OC(F)(F)F)cc4)CC3)cc2)Cn2cc([N+](=O)[O-])nc2O1` [PCM-0215096], for which, under setting [1], the inhibition at 10 µM was -1.5%.

For `COc1ccc2c(O[C@@H]3C[C@H]4C(=O)N[C@]5(C(=O)NS(=O)(=O)C6CC6)C[C@H]5/C=C\CCCCN(C)C(=O)[C@@H]4C3)cc(-c3nc(C(C)C)cs3)nc2c1C` [PCM-0215097], under setting [1], the inhibition at 10 µM came out at 55.6%.

Regarding `COc1ccc(-c2oc3cc(O)cc(O)c3c(=O)c2O)cc1` [PCM-0215098], the inhibition at 10 µM under setting [1] was found to be 5.5%.

Take `CC[C@H]1OC(=O)[C@H](C)[C@@H](O[C@H]2C[C@@](C)(OC)[C@@H](O)[C@H](C)O2)[C@H](C)[C@@H](O[C@@H]2O[C@H](C)C[C@H](N(C)C)[C@H]2O)[C@](C)(O)C[C@@H](C)CN[C@H](C)[C@@H](O)[C@]1(C)O` [PCM-0215099]: the inhibition at 10 µM under setting [1] is -13.2%.

Take `CN(C)N(C)C(=O)[C@@]1(Cc2ccccc2)CCCN(C(=O)[C@@H](Cc2c[nH]c3ccccc23)NC(=O)C(C)(C)N)C1` [PCM-0215100]: the inhibition at 10 µM under setting [1] amounted to 4.6%.

With `CC(C)(O)[C@@H]1CC[C@](C)([C@H]2[C@@H](O)C[C@@]3(C)[C@@H]4C[C@H](O)[C@H]5C(C)(C)[C@@H](O)CC[C@@]56C[C@@]46CC[C@]23C)O1` [PCM-0215101], the inhibition at 10 µM under setting [1] was -6.9%.

`C[C@H]1[C@H](C)CC[C@]2(C(=O)O[C@@H]3O[C@H](CO[C@@H]4O[C@H](CO)[C@@H](O[C@@H]5O[C@@H](C)[C@H](O)[C@@H](O)[C@H]5O)[C@H](O)[C@H]4O)[C@@H](O)[C@H](O)[C@H]3O)CC[C@]3(C)C(=CC[C@@H]4[C@@]5(C)C[C@@H](O)[C@H](O)[C@@](C)(CO)[C@@H]5[C@H](O)C[C@]43C)[C@H]12` [PCM-0215102]: the inhibition at 10 µM under setting [1] was determined as 10.1%.

Regarding `CCN(CC)CC(=O)Oc1ccc(NC(C)=O)cc1` [PCM-0215103], the inhibition at 10 µM under setting [1] is -0.8%.

With `COc1cccc(-c2c(C)n(Cc3c(F)cccc3C(F)(F)F)c(=O)n(C[C@H](NCCCC(=O)O)c3ccccc3)c2=O)c1F` [PCM-0215104], the inhibition at 10 µM under setting [1] was -7%.

On to `COC(=O)c1ccc(O)c(C(=O)OC)c1` [PCM-0215105], for which the inhibition at 10 µM under setting [1] is -13.1%.

For `CC(C)(C)c1cc(O)ccc1O` [PCM-0215107], the inhibition at 10 µM under setting [1] turned out to be 5.5%.

As to `O=c1c(-c2ccc(O[C@@H]3O[C@H](CO)[C@@H](O)[C@H](O)[C@H]3O)cc2)coc2cc(O)cc(O)c12` [PCM-0215108], the inhibition at 10 µM under setting [1] is -9.7%.

As for `CCc1ccc(C(=O)C(C)CN2CCCCC2)cc1` (stereo not drawn) [PCM-0215109], the inhibition at 10 µM under setting [1] is -24.1%.

Consider `CCCCCOc1ccccc1/C(=C\SC)n1ccnc1` [PCM-0215110], for which, under setting [1], the inhibition at 10 µM is -22.6%.

On to `CCCC(CCC)C(N)=O` [PCM-0215111], for which the inhibition at 10 µM under setting [1] was 19.3%.

For `CN[C@H]1C(=O)N[C@@H]2Cc3ccc(cc3)Oc3cc4cc(c3O[C@@H]3O[C@H](C(=O)O)[C@@H](O)[C@H](O)[C@H]3NC(=O)CCCCCCCCC(C)C)Oc3ccc(cc3Cl)[C@@H](O)[C@@H]3NC(=O)[C@H](NC(=O)[C@@H]4NC(=O)[C@@H](NC2=O)c2cc(cc(O)c2Cl)Oc2cc1ccc2O)c1ccc(O)c(c1)-c1c(O[C@H]2O[C@H](CO)[C@@H](O)[C@H](O)[C@@H]2O)cc(O)cc1[C@@H](C(=O)NCCCN(C)C)NC3=O` [PCM-0215113], the inhibition at 10 µM under setting [1] came to 73.2%.

Take `CCCOC(C(=O)OC1CCN(C)CC1)(c1ccccc1)c1ccccc1` [PCM-0215115]: under setting [1], the inhibition at 10 µM is -24.1%.

For the molecule `CC(=O)CC/C=C(\C)CC/C=C(\C)CC/C=C(\C)CCC=C(C)C` [PCM-0215116], the inhibition at 10 µM under setting [1] amounted to 2.3%.

For `CCCCCCCCN=c1ccn(CCCCCCCCCCn2ccc(=NCCCCCCCC)cc2)cc1` [PCM-0215117], the inhibition at 10 µM under setting [1] is -64.1%.

Consider `N#Cc1ccc(Oc2ccc3c(c2)COB3O)cc1` [PCM-0215118], for which the inhibition at 10 µM under setting [1] was 8.5%.

With `O=C(O)COCCN1CCN([C@H](c2ccccc2)c2ccc(Cl)cc2)CC1` [PCM-0215119], the inhibition at 10 µM under setting [1] was -6.2%.

As to `OCCc1c[nH]c2ccccc12` [PCM-0215120], the inhibition at 10 µM under setting [1] was -24.1%.

For `O=C(O)Cc1ccc(O)cc1` [PCM-0215121], the inhibition at 10 µM under setting [1] came out at 25.7%.

Take `O=C(O)c1ccco1` [PCM-0215122]: under setting [1], the inhibition at 10 µM was -21.8%.

With `CN(CCO)CC(O)Cn1cnc2c1c(=O)n(C)c(=O)n2C` (stereo not drawn) [PCM-0215123], under setting [1], the inhibition at 10 µM was found to be 9.3%.

Turning to `N/C(=N\N=C\c1ccc(Cl)cc1)N/N=C/c1ccc(Cl)cc1` [PCM-0215125], the inhibition at 10 µM under setting [1] was 77.8%.

Turning to `NCC(CC(=O)O)c1ccccc1` (stereo not drawn) [PCM-0215126], under “read-out: BTK inhibition (%)”, the inhibition at 10 µM was -9.3%.

For the molecule `CN1[C@@H]2CC[C@H]1CC(O)C2` (stereo partly drawn) [PCM-0215128], the inhibition at 10 µM (read-out: BTK inhibition (%)) was -7.8%.

In the case of `CC(=O)O[C@H]1[C@H]2[C@@H](OC(=O)Cc3ccccc3)[C@@H](C)C[C@]2(OC(C)=O)C(=O)/C(C)=C/[C@@H]2[C@H](CC[C@@]13CO3)C2(C)C` [PCM-0215129], the inhibition at 10 µM (read-out: BTK inhibition (%)) was -14%.

As to `OC[C@H]1O[C@H](O[C@H]2[C@H](O)[C@@H](O)C(O)O[C@@H]2CO)[C@H](O)[C@@H](O)[C@@H]1O` (stereo partly drawn) [PCM-0215131], under setting [1], the inhibition at 10 µM stood at 0%.

Consider `O=C(O)c1c[nH]c2ccccc12` [PCM-0215132], for which, under setting [1], the inhibition at 10 µM was found to be 6.2%.

Consider `O=C1Cc2ccccc2N1` [PCM-0215133], for which, under setting [1], the inhibition at 10 µM is 1.6%.

Take `Cc1nnc(SCC2=C(C(=O)O)N3C(=O)[C@@H](NC(=O)Cn4cc(Cl)c(=O)c(Cl)c4)[C@H]3SC2)s1` [PCM-0215135]: the inhibition at 10 µM under setting [1] is -13.2%.

With `O=C(Nc1ccc(Br)cc1)c1c(O)cccc1O` [PCM-0215136], under setting [1], the inhibition at 10 µM worked out at 3.9%.

Take `C/C(=C\CNc1ncnc2nc[nH]c12)CO` [PCM-0215137]: under setting [1], the inhibition at 10 µM is -13.2%.

Regarding `O=S1(=O)CCN(CN2CCS(=O)(=O)NC2)CN1` [PCM-0215138], the inhibition at 10 µM under setting [1] came out at 0%.

Consider `Nc1ccnc(=O)[nH]1` [PCM-0215139], for which, under setting [1], the inhibition at 10 µM was -5.4%.

Take `O=C[C@H](O)[C@H]1OC(=O)[C@@H](O)[C@H]1O` [PCM-0215140]: under setting [1], the inhibition at 10 µM is -1.4%.

Regarding `OC1CC2CCC(C1)N2` (stereo not drawn) [PCM-0215141], the inhibition at 10 µM under setting [1] is -1.6%.

On to `Nc1ccc(S(=O)(=O)Nc2cncc(Cl)n2)cc1` [PCM-0215142], for which the inhibition at 10 µM under setting [1] was -10.9%.

Consider `COc1cc(S(=O)(=O)O)ccc1O` [PCM-0215143], for which the inhibition at 10 µM under setting [1] is -7%.

For `C[C@@H]1CC[C@H]2C(C)(C)C3CC12CC[C@@]3(C)O` (stereo partly drawn) [PCM-0215144], under setting [1], the inhibition at 10 µM worked out at 8.6%.

As to `O=C(O)/C=C(/CC(=O)O)C(=O)O` [PCM-0215145], the inhibition at 10 µM under setting [1] was -0.8%.

Take `COc1cc(CO)cc(OC)c1O` [PCM-0215146]: under setting [1], the inhibition at 10 µM is -6.2%.

Turning to `C[C@H](CCC(=O)NCC(=O)O)[C@H]1CC[C@H]2[C@@H]3[C@H](O)C[C@@H]4C[C@H](O)CC[C@]4(C)[C@H]3C[C@H](O)[C@]12C` [PCM-0215147], the inhibition at 10 µM under setting [1] was -10.1%.

With `O=Cc1ccccc1O[C@@H]1O[C@H](CO)[C@@H](O)[C@H](O)[C@H]1O` [PCM-0215148], the inhibition at 10 µM under setting [1] is -15.6%.

Turning to `C1=Cc2ccccc2Nc2ccccc21` [PCM-0215149], under setting [1], the inhibition at 10 µM came out at 4.7%.

For `CCCCc1nc(C)c(CC(=S)N(C)C)c(=O)n1Cc1ccc(-c2ccccc2-c2nn[nH]n2)cc1` [PCM-0215150], under setting [1], the inhibition at 10 µM was -6.2%.

As for `CC1=C(C(=O)OCCN(Cc2ccccc2)c2ccccc2)C(c2cccc([N+](=O)[O-])c2)C(P2(=O)OCC(C)(C)CO2)=C(C)N1` (stereo not drawn) [PCM-0215151], the inhibition at 10 µM under setting [1] worked out at 7.8%.

In the case of `O=C(Nc1cc(Cl)cc(Cl)c1O)c1c(O)c(Cl)cc(Cl)c1Cl` [PCM-0215152], under setting [1], the inhibition at 10 µM stood at 18.5%.

For `CCC(C(=O)O)c1ccc(N2Cc3ccccc3C2=O)cc1` (stereo not drawn) [PCM-0215153], the inhibition at 10 µM under setting [1] is -18.5%.

As for `C[C@@H](O)[C@H]1C(=O)N2C(C(=O)O)=C([C@H]3CCCO3)S[C@H]12` [PCM-0215154], the inhibition at 10 µM under setting [1] was -2.3%.

`CO/N=C(\C(=O)N[C@@H]1C(=O)N2C(C(=O)O)=C(CSc3nc(C)c(CC(=O)O)s3)CS[C@H]12)c1csc(N)n1` [PCM-0215155]: under setting [1], the inhibition at 10 µM was -2.3%.

As for `O=C(Nc1ccc([N+](=O)[O-])cc1)Nc1ccc([N+](=O)[O-])cc1` [PCM-0215156], the inhibition at 10 µM under setting [1] was -14%.

Take `c1csc(-c2ccc(-c3cccs3)s2)c1` [PCM-0215157]: the inhibition at 10 µM under setting [1] was determined as 0%.

In the case of `C/C=C/C=C/C(=O)O` [PCM-0215158], the inhibition at 10 µM under setting [1] was 0%.

Regarding `CC(C)[C@H](C)[C@@H](O)[C@H](O)[C@@H](C)[C@H]1CC[C@H]2[C@@H]3COC(=O)[C@H]4C[C@H](O)[C@H](O)C[C@]4(C)[C@H]3CC[C@]12C` [PCM-0215160], the inhibition at 10 µM under setting [1] was -10.1%.

Consider `CC(C)=CCC[C@](C)(O[C@@H]1O[C@H](CO)[C@@H](O)[C@H](O)[C@H]1O)[C@H]1CC[C@]2(C)[C@@H]1[C@H](O)C[C@@H]1[C@@]3(C)CC[C@H](O)C(C)(C)[C@@H]3[C@@H](O[C@@H]3O[C@H](CO)[C@@H](O)[C@H](O)[C@H]3O[C@@H]3OC[C@@H](O)[C@H](O)[C@H]3O)C[C@]12C` [PCM-0215161], for which, under setting [1], the inhibition at 10 µM was found to be 5.5%.

As to `O=Cc1ccc(O)c(O)c1` [PCM-0215162], under setting [1], the inhibition at 10 µM was determined as 5.4%.

Turning to `N[C@@H](Cc1cc(I)c(O)c(I)c1)C(=O)O` [PCM-0215163], the inhibition at 10 µM under setting [1] is -31.9%.
